Source: PubChem BioAssay (NCI)
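Grown in 96-well plates, cells were treated for 48 hours with each compound at five concentrations. Insufficient inhibition: endpoint recorded as highest concentration tested. At the GI50, growth is halved. TGI denotes the concentration required for complete inhibition of growth.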

Assays:
Test in all cases: DTP human tumour cell line panel, 48 h
M14 melanoma = test system: M14 melanoma
T-47D breast = test system: T-47D breast
MDA-MB-231 breast = test system: MDA-MB-231 breast
NCI-H23 lung = test system: NCI-H23 lung
K-562 leukemia = test system: K-562 leukemia
MCF7 breast = test system: MCF7 breast
NCI/ADR-RES ovarian = test system: NCI/ADR-RES ovarian
U251 CNS = test system: U251 CNS
RXF 393 renal = test system: RXF 393 renal
MALME-3M melanoma = test system: MALME-3M melanoma
A549 NSCLC = test system: A549 NSCLC
UO-31 renal = test system: UO-31 renal
MDA-MB-435 = test system: MDA-MB-435
HCC-2998 colon = test system: HCC-2998 colon
OVCAR-5 ovarian = test system: OVCAR-5 ovarian
HCT-116 colon = test system: HCT-116 colon
SF-268 CNS = test system: SF-268 CNS
CAKI-1 renal = test system: CAKI-1 renal
HS 578T breast = test system: HS 578T breast
SNB-19 CNS = test system: SNB-19 CNS
NCI-H226 lung = test system: NCI-H226 lung
A498 renal = test system: A498 renal
KM12 colon = test system: KM12 colon
SW-620 colon = test system: SW-620 colon
HOP-62 NSCLC = test system: HOP-62 NSCLC
MOLT-4 leukemia = test system: MOLT-4 leukemia
HL-60(TB) leukemia = test system: HL-60(TB) leukemia
UACC-62 melanoma = test system: UACC-62 melanoma
TK-10 renal = test system: TK-10 renal
SK-MEL-28 melanoma = test system: SK-MEL-28 melanoma
SK-MEL-2 melanoma = test system: SK-MEL-2 melanoma
786-0 renal = test system: 786-0 renal
PC-3 prostate = test system: PC-3 prostate
SK-MEL-5 melanoma = test system: SK-MEL-5 melanoma
COLO 205 colon = test system: COLO 205 colon
SF-295 CNS = test system: SF-295 CNS
ACHN renal = test system: ACHN renal
LOX IMVI melanoma = test system: LOX IMVI melanoma
OVCAR-4 ovarian = test system: OVCAR-4 ovarian
UACC-257 melanoma = test system: UACC-257 melanoma
CCRF-CEM leukemia = test system: CCRF-CEM leukemia
HOP-92 NSCLC = test system: HOP-92 NSCLC
SR leukemia = test system: SR leukemia
OVCAR-3 ovarian = test system: OVCAR-3 ovarian
HT29 colon = test system: HT29 colon
OVCAR-8 ovarian = test system: OVCAR-8 ovarian
HCT-15 colon = test system: HCT-15 colon
NCI-H460 lung = test system: NCI-H460 lung
SF-539 CNS = test system: SF-539 CNS
SNB-75 CNS = test system: SNB-75 CNS
BT-549 breast = test system: BT-549 breast
EKVX NSCLC = test system: EKVX NSCLC
NCI-H522 lung = test system: NCI-H522 lung
SN12C renal = test system: SN12C renal
SK-OV-3 ovarian = test system: SK-OV-3 ovarian
IGROV1 ovarian = test system: IGROV1 ovarian
DU-145 prostate = test system: DU-145 prostate

SMILES: CC1(C)CC[C@]2(C(N)=O)CC[C@]3(C)C(=CC[C@@H]4[C@@]5(C)C/C(=C/c6cccnc6)C(=O)C(C)(C)[C@@H]5CC[C@]43C)[C@@H]2C1
- GI50 (M14 melanoma): 3.38 µM
- TGI (M14 melanoma): 10.9 µM
- GI50 (T-47D breast): 2.66 µM
- TGI (T-47D breast): 11.4 µM
- GI50 (MDA-MB-231 breast): 3.8 µM
- TGI (MDA-MB-231 breast): 22.3 µM
- GI50 (NCI-H23 lung): 3.31 µM
- TGI (NCI-H23 lung): > 100 µM
- GI50 (K-562 leukemia): 2.4 µM
- TGI (K-562 leukemia): 7.11 µM
- GI50 (MCF7 breast): 2.71 µM
- TGI (MCF7 breast): 13.7 µM
- GI50 (NCI/ADR-RES ovarian): 2.71 µM
- TGI (NCI/ADR-RES ovarian): 8.96 µM
- GI50 (U251 CNS): 3.19 µM
- TGI (U251 CNS): 11.2 µM
- GI50 (RXF 393 renal): 1.67 µM
- TGI (RXF 393 renal): 3.3 µM
- GI50 (MALME-3M melanoma): 1.9 µM
- TGI (MALME-3M melanoma): 4.05 µM
- GI50 (A549 NSCLC): 3.31 µM
- TGI (A549 NSCLC): > 100 µM
- GI50 (UO-31 renal): 2.28 µM
- TGI (UO-31 renal): 6.83 µM
- GI50 (MDA-MB-435): 3.15 µM
- TGI (MDA-MB-435): 11.2 µM
- GI50 (HCC-2998 colon): 1.71 µM
- TGI (HCC-2998 colon): 3.34 µM
- GI50 (OVCAR-5 ovarian): 1.93 µM
- TGI (OVCAR-5 ovarian): 4.16 µM
- GI50 (HCT-116 colon): 1.8 µM
- TGI (HCT-116 colon): 3.68 µM
- GI50 (SF-268 CNS): 3.8 µM
- TGI (SF-268 CNS): 18 µM
- GI50 (CAKI-1 renal): 2.92 µM
- TGI (CAKI-1 renal): 13 µM
- GI50 (HS 578T breast): 5.93 µM
- TGI (HS 578T breast): > 100 µM
- GI50 (SNB-19 CNS): 4.03 µM
- TGI (SNB-19 CNS): 16.5 µM
- GI50 (NCI-H226 lung): 2.09 µM
- TGI (NCI-H226 lung): 5.78 µM
- GI50 (A498 renal): 2.06 µM
- TGI (A498 renal): 4.06 µM
- GI50 (KM12 colon): 2.28 µM
- TGI (KM12 colon): 5.72 µM
- GI50 (SW-620 colon): 3 µM
- TGI (SW-620 colon): > 100 µM
- GI50 (HOP-62 NSCLC): 2.84 µM
- TGI (HOP-62 NSCLC): 10.1 µM
- GI50 (MOLT-4 leukemia): 2.01 µM
- TGI (MOLT-4 leukemia): 6.3 µM
- GI50 (HL-60(TB) leukemia): 2.04 µM
- TGI (HL-60(TB) leukemia): 4.55 µM
- GI50 (UACC-62 melanoma): 2.21 µM
- TGI (UACC-62 melanoma): 5.13 µM
- GI50 (TK-10 renal): 4.05 µM
- TGI (TK-10 renal): 30.2 µM
- GI50 (SK-MEL-28 melanoma): 2.26 µM
- TGI (SK-MEL-28 melanoma): 4.71 µM
- GI50 (SK-MEL-2 melanoma): 2.22 µM
- TGI (SK-MEL-2 melanoma): 4.99 µM
- GI50 (786-0 renal): 3.85 µM
- TGI (786-0 renal): 30.5 µM
- GI50 (PC-3 prostate): 2.56 µM
- TGI (PC-3 prostate): 13.4 µM
- GI50 (SK-MEL-5 melanoma): 1.81 µM
- TGI (SK-MEL-5 melanoma): 3.33 µM
- GI50 (COLO 205 colon): 1.86 µM
- TGI (COLO 205 colon): 3.76 µM
- GI50 (SF-295 CNS): 3.16 µM
- TGI (SF-295 CNS): 11.2 µM
- GI50 (ACHN renal): 3.49 µM
- TGI (ACHN renal): 13.6 µM
- GI50 (LOX IMVI melanoma): 1.71 µM
- TGI (LOX IMVI melanoma): 3.24 µM
- GI50 (OVCAR-4 ovarian): 7.1 µM
- TGI (OVCAR-4 ovarian): > 100 µM
- GI50 (UACC-257 melanoma): 3.2 µM
- TGI (UACC-257 melanoma): 12.1 µM
- GI50 (CCRF-CEM leukemia): 2.54 µM
- TGI (CCRF-CEM leukemia): 7.73 µM
- GI50 (HOP-92 NSCLC): 2.66 µM
- TGI (HOP-92 NSCLC): 8.7 µM
- GI50 (SR leukemia): 2.34 µM
- TGI (SR leukemia): 7.14 µM
- GI50 (OVCAR-3 ovarian): 1.86 µM
- TGI (OVCAR-3 ovarian): 3.53 µM
- GI50 (HT29 colon): 2.1 µM
- TGI (HT29 colon): 4.56 µM
- GI50 (OVCAR-8 ovarian): 3.69 µM
- TGI (OVCAR-8 ovarian): > 100 µM
- GI50 (HCT-15 colon): 2.09 µM
- TGI (HCT-15 colon): 4.31 µM
- GI50 (NCI-H460 lung): 2.2 µM
- TGI (NCI-H460 lung): 5.33 µM
- GI50 (SF-539 CNS): 1.97 µM
- TGI (SF-539 CNS): 3.9 µM
- GI50 (SNB-75 CNS): 9.92 µM
- TGI (SNB-75 CNS): > 100 µM
- GI50 (BT-549 breast): 2.61 µM
- TGI (BT-549 breast): 6.83 µM
- GI50 (EKVX NSCLC): 3.44 µM
- TGI (EKVX NSCLC): > 100 µM
- GI50 (NCI-H522 lung): 2.43 µM
- TGI (NCI-H522 lung): 8.11 µM
- GI50 (SN12C renal): 2.31 µM
- TGI (SN12C renal): 5.24 µM
- GI50 (SK-OV-3 ovarian): 3.95 µM
- TGI (SK-OV-3 ovarian): > 100 µM
- GI50 (IGROV1 ovarian): 3.62 µM
- TGI (IGROV1 ovarian): 73 µM
- GI50 (DU-145 prostate): 3.52 µM
- TGI (DU-145 prostate): 16.5 µM
